Source: patent US10131652B2, “Pyrimidinyloxy benzene derivatives as herbicides” (E. I. DU PONT DE NEMOURS AND COMPANY, priority 2014, dated 2018)

Experiments:
Type in all cases: in vivo
[1] = tested on: giant foxtail (Setaria faberii); experiment: Test B pre-/postemergence plant response
Text: (§1) Seeds of plant species selected from bamyardgrass (Echinochloa crus-galli), kochia (Kochia scoparia), ragweed (common ragweed, Ambrosia elatior), Italian ryegrass (Lolium multiflorum), large (Lg) crabgrass (Digitaria sanguinalis), giant foxtail (Setaria faberii), momingglory (Ipomoea spp.), pigweed (Amaranthus retroflexus), velvetleaf (Abutilon theophrasti), wheat (Triticum aestivum), and corn (Zea mays) were planted into a blend of loam soil and sand and treated preemergence with a directed soil spray using test chemicals formulated in a non-phytotoxic solvent mixture which included a surfactant. At the same time, plants selected from these crop and weed species and also blackgrass (Alopecurus myosuroides), and galium (catchweed bedstraw, Galium aparine) were planted in pots containing the same blend of loam soil and sand and treated with postemergence applications of test chemicals formulated in the same manner. Plants ranged in height from 2 to 10 cm and were in the one- to two-leaf stage for the postemergence treatment. Treated plants and untreated controls were maintained in a greenhouse for approximately 10 days, after which time all treated plants were compared to untreated controls and visually evaluated for injury. Plant response ratings, summarized in Table B, are based on a 0 to 100 scale where 0 is no effect and 100 is complete control. A dash (-) response means no test result.

[2] = tested on: wheat (Triticum aestivum); experiment: Test B pre-/postemergence plant response; conditions: 0 to 100 scale, 0 no effect, 100 complete control
Text: as §1

[3] = tested on: ragweed (common ragweed, Ambrosia elatior); experiment: Test B pre-/postemergence plant response
Text: as §1

corn (Zea mays) = experiment: Test B pre-/postemergence plant response; conditions: 0 to 100 scale, 0 no effect, 100 complete control
Text: as §1

[4] = tested on: Italian ryegrass (Lolium multiflorum); experiment: Test B pre-/postemergence plant response
Text: as §1

kochia (Kochia scoparia) = experiment: Test B pre-/postemergence plant response
Text: as §1

[5] = tested on: pigweed (Amaranthus retroflexus); experiment: Test B pre-/postemergence plant response
Text: as §1

[6] = tested on: barnyardgrass (Echinochloa crus-galli); experiment: Test B pre-/postemergence plant response
Text: as §1

[7] = tested on: ducksalad (Heteranthera limosa); experiment: Test C flooded paddy test plant response; conditions: Flood, 250 g ai/ha; scale of 0 to 100 where 0 is no effect and 100 is complete control; 13 to 15 days
How it was run: (§2)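 Scale 0 (no effect) to 100 (complete control), assigned visually versus controls after 13–15 d greenhouse. Application: directly to paddy water, 3 cm flood depth kept constant, 2-leaf stage.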

[8] = tested on: small-flower umbrella sedge (Cyperus difformis); experiment: Test C flooded paddy test plant response; conditions: Flood, 250 g ai/ha; scale of 0 to 100 where 0 is no effect and 100 is complete control; 13 to 15 days
How it was run: as §2

rice (Oryza sativa) = experiment: Test C flooded paddy test plant response; conditions: Flood, 250 g ai/ha; scale of 0 to 100 where 0 is no effect and 100 is complete control; 13 to 15 days
How it was run: as §2

[9] = tested on: barnyardgrass (Echinochloa crus-galli); experiment: Test C flooded paddy test plant response; conditions: Flood, 250 g ai/ha; scale of 0 to 100 where 0 is no effect and 100 is complete control; 13 to 15 days
How it was run: as §2

[10] = tested on: blackgrass (Alopecurus myosuroides); experiment: Test B postemergence plant response; conditions: 0 to 100 scale, 0 no effect, 100 complete control
How it was run: (§3)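 Pots, loam soil + sand; postemergence treatment at 1–2 leaf stage, 2–10 cm; greenhouse ~10 d; visual injury score 0 (none) to 100 (complete control) relative to untreated controls.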

[11] = tested on: galium (catchweed bedstraw, Galium aparine); experiment: Test B postemergence plant response; conditions: 0 to 100 scale, 0 no effect, 100 complete control
How it was run: as §3

[12] = 31 g ai/ha, Postemergence, 0 to 100 scale, 0 no effect, 100 complete control
[13] = 125 g ai/ha, postemergence, 0 to 100 scale, 0 no effect, 100 complete control
[14] = Preemergence, 31 g ai/ha, 0 to 100 scale (0 no effect, 100 complete control)
[15] = Preemergence, 125 g ai/ha, 0 to 100 scale where 0 is no effect and 100 is complete control
[16] = 31 g ai/ha, Preemergence, 0 to 100 scale where 0 is no effect and 100 is complete control

| Structure (SMILES) | Plant response rating, Foxtail, Giant [1, 12] | Plant response rating, Foxtail, Giant [1, 13] | Plant response rating, Foxtail, Giant [1, 15] | Plant response rating, Wheat ([2]; 31 g ai/ha, Postemergence) | Plant response rating, Wheat ([2]; 125 g ai/ha, postemergence) | Plant response rating, Ragweed [3, 12] | Plant response rating, Ragweed [3, 13] | Plant response rating, Corn (corn (Zea mays); 31 g ai/ha, Postemergence) | Plant response rating, Corn (corn (Zea mays); 125 g ai/ha, postemergence) | Plant response rating, Ryegrass, Italian [4, 12] | Plant response rating, Ryegrass, Italian [4, 13] | Plant response rating, Kochia (kochia (Kochia scoparia); [12]) | Plant response rating, Kochia (kochia (Kochia scoparia); [13]) | Plant response rating, Kochia (kochia (Kochia scoparia); [15]) | Plant response rating, Pigweed [5, 12] | Plant response rating, Pigweed [5, 13] | Plant response rating, Barnyardgrass [6, 12] | Plant response rating, Barnyardgrass [6, 13] | Plant response rating, Barnyardgrass [6, 15] | Ducksalad plant response rating [7] | also measured |
| --- | --- | --- | --- | --- | --- | --- | --- | --- | --- | --- | --- | --- | --- | --- | --- | --- | --- | --- | --- | --- | --- |
| Fc1cc(F)c(-c2cc(C(F)F)no2)c(Oc2ncc(Cl)cn2)c1 [Compound 107] | 0 | 0 | 0 | 0 | 0 | 0 | 0 | 0 | 0 | 0 | 0 | 0 | 0 | 0 | 0 | 0 | 0 | 0 | 0 | 0 | Foxtail, Giant plant response rating [1, 14]: 0; Ragweed plant response rating [3, 14]: 0; Plant response rating, Ragweed [3, 15]: 0; Ryegrass, Italian plant response rating [4, 14]: 0; Plant response rating, Ryegrass, Italian [4, 15]: 0; Kochia plant response rating (kochia (Kochia scoparia); [14]): 0; Pigweed plant response rating [5, 14]: 0; Plant response rating, Pigweed [5, 15]: 0; Barnyardgrass plant response rating [6, 14]: 0; Sedge, Umbrella plant response rating [8]: 0; Rice plant response rating (rice (Oryza sativa)): 0; Barnyardgrass plant response rating [9]: 0; Plant response rating, Blackgrass ([10]; 31 g ai/ha, Postemergence): 0; Plant response rating, Blackgrass ([10]; 125 g ai/ha, postemergence): 0; Plant response rating, Galium ([11]; 31 g ai/ha, Postemergence): 0; Plant response rating, Galium ([11]; 125 g ai/ha, postemergence): 0 |
| CCOC(OCC)c1cc(-c2ccccc2Oc2ncc(Cl)cn2)on1 [Compound 108] | 0 | 0 | 0 | 0 | 0 | 0 | 0 | 0 | 10 | 0 | 0 | 0 | 0 | 0 | 0 | 0 | 0 | 0 | 0 | 0 | Plant response rating, Foxtail, Giant [1, 16]: 0; Plant response rating, Ragweed [3, 16]: 0; Plant response rating, Ragweed [3, 15]: 0; Plant response rating, Ryegrass, Italian [4, 16]: 0; Plant response rating, Ryegrass, Italian [4, 15]: 0; Plant response rating, Kochia (kochia (Kochia scoparia); [16]): 0; Plant response rating, Pigweed [5, 16]: 0; Plant response rating, Pigweed [5, 15]: 0; Plant response rating, Barnyardgrass [6, 16]: 0; Sedge, Umbrella plant response rating [8]: 0; Rice plant response rating (rice (Oryza sativa)): 0; Barnyardgrass plant response rating [9]: 0; Plant response rating, Blackgrass ([10]; 31 g ai/ha, Postemergence): 0; Plant response rating, Blackgrass ([10]; 125 g ai/ha, postemergence): 0; Plant response rating, Galium ([11]; 31 g ai/ha, Postemergence): 30; Plant response rating, Galium ([11]; 125 g ai/ha, postemergence): 50 |
| COc1cccc(Oc2ncc(Cl)cn2)c1-c1cc(C(F)F)on1 [Compound 109] | 60 | 90 | 100 | 0 | 10 | 60 | 90 | 10 | 60 | 10 | 50 | 0 | 30 | 30 | 80 | 100 | 60 | 90 | 100 | 85 | Plant response rating, Foxtail, Giant [1, 16]: 80; Plant response rating, Ragweed [3, 16]: 20; Plant response rating, Ragweed [3, 15]: 70; Plant response rating, Ryegrass, Italian [4, 16]: 0; Plant response rating, Ryegrass, Italian [4, 15]: 10; Plant response rating, Kochia (kochia (Kochia scoparia); [16]): 0; Plant response rating, Pigweed [5, 16]: 90; Plant response rating, Pigweed [5, 15]: 100; Plant response rating, Barnyardgrass [6, 16]: 40; Sedge, Umbrella plant response rating [8]: 80; Rice plant response rating (rice (Oryza sativa)): 35; Barnyardgrass plant response rating [9]: 30; Plant response rating, Blackgrass ([10]; 31 g ai/ha, Postemergence): 50; Plant response rating, Blackgrass ([10]; 125 g ai/ha, postemergence): 90; Plant response rating, Galium ([11]; 31 g ai/ha, Postemergence): 50; Plant response rating, Galium ([11]; 125 g ai/ha, postemergence): 100 |
| COc1cccc(Oc2ncc(Cl)cn2)c1-c1cc(C)no1 [Compound 110] | 0 | 70 | 70 | 0 | 0 | 30 | 40 | 0 | 10 | 0 | 0 | 10 | 50 | 0 | 10 | 30 | 0 | 50 | 40 | 30 | Plant response rating, Foxtail, Giant [1, 16]: 0; Plant response rating, Ragweed [3, 16]: 0; Plant response rating, Ryegrass, Italian [4, 16]: 0; Plant response rating, Kochia (kochia (Kochia scoparia); [16]): 0; Plant response rating, Pigweed [5, 16]: 10; Plant response rating, Barnyardgrass [6, 16]: 0; Sedge, Umbrella plant response rating [8]: 60; Rice plant response rating (rice (Oryza sativa)): 0; Barnyardgrass plant response rating [9]: 0; Plant response rating, Blackgrass ([10]; 31 g ai/ha, Postemergence): 0; Plant response rating, Blackgrass ([10]; 125 g ai/ha, postemergence): 40; Plant response rating, Galium ([11]; 31 g ai/ha, Postemergence): 20; Plant response rating, Galium ([11]; 125 g ai/ha, postemergence): 70 |
| COc1cccc(Oc2ncc(F)cn2)c1-c1cc(C)no1 [Compound 111] | 0 | 60 | 50 | 0 | 0 | 10 | 20 | 0 | 10 | 0 | 0 | 20 | 30 | 10 | 0 | 20 | 0 | 10 | 20 | 0 | Plant response rating, Foxtail, Giant [1, 16]: 0; Plant response rating, Ragweed [3, 16]: 0; Plant response rating, Ryegrass, Italian [4, 16]: 0; Plant response rating, Kochia (kochia (Kochia scoparia); [16]): 0; Plant response rating, Pigweed [5, 16]: 10; Plant response rating, Barnyardgrass [6, 16]: 0; Sedge, Umbrella plant response rating [8]: 0; Rice plant response rating (rice (Oryza sativa)): 0; Barnyardgrass plant response rating [9]: 0; Plant response rating, Blackgrass ([10]; 31 g ai/ha, Postemergence): 0; Plant response rating, Blackgrass ([10]; 125 g ai/ha, postemergence): 40; Plant response rating, Galium ([11]; 31 g ai/ha, Postemergence): 10; Plant response rating, Galium ([11]; 125 g ai/ha, postemergence): 20 |
